In patent publication US20220298141A1, “ENZYME INHIBITORS” (KALVISTA PHARMACEUTICALS LIMITED, priority 2019, published 2022):

How the values were obtained:
Human Factor XIIa = molecular target: T1, Human Factor XIIa (Homo sapiens, UniProt P00748); experiment: Determination of Factor XIIa inhibitory activity in vitro (fluorogenic substrate H-DPro-Phe-Arg-AFC); type: biochemical; details: Human Factor XIIa (Enzyme Research Laboratories), 25° C., read-out: Human FXIIa IC50
T1 construct: purchased Enzyme Research Laboratories
T1 sequence (P00748 373-615 limits assumed): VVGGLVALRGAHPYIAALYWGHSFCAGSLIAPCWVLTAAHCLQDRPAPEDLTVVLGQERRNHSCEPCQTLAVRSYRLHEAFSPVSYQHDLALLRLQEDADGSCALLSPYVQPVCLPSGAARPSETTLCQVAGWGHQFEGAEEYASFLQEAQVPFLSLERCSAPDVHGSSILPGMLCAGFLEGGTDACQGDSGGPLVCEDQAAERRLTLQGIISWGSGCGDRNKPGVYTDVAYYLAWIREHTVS
T1 sequence (P00748 20-372 partner limits assumed): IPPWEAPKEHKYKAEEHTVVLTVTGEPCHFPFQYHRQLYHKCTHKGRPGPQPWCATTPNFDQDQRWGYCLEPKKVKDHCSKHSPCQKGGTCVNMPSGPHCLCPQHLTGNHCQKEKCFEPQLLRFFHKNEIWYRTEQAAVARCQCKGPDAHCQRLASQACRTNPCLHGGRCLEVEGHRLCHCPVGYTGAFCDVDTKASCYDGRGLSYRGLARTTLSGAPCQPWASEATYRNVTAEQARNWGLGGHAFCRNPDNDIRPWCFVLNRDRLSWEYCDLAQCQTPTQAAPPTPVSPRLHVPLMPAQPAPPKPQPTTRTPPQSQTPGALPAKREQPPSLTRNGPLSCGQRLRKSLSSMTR
Procedure, shortened: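 In vitro inhibition of human Factor XIIa (sourced from Enzyme Research Laboratories) was measured by incubating the enzyme at 25° C. with the fluorogenic substrate H-DPro-Phe-Arg-AFC across a range of test compound concentrations. The initial reaction rate, taken as residual enzyme activity, was followed by the […], and IC50 values were calculated.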

Human FXIa = molecular target: T2, Human FXIa (Homo sapiens, UniProt P03951); experiment: Determination of FXIa inhibitory activity in vitro (fluorogenic substrate Z-Gly-Pro-Arg-AFC); type: biochemical; details: Selectivity, Human FXIa (Enzyme Research Laboratories), 25° C.
T2 construct: purchased Enzyme Research Laboratories
T2 sequence (P03951 388-625 limits assumed): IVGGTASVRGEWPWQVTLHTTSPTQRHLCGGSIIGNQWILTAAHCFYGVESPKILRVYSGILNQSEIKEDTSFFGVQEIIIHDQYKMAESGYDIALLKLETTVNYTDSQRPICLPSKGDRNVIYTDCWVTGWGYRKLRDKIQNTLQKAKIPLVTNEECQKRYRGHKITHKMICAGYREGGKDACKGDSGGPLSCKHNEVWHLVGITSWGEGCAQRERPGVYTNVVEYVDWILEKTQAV
T2 sequence (P03951 19-387 partner limits assumed): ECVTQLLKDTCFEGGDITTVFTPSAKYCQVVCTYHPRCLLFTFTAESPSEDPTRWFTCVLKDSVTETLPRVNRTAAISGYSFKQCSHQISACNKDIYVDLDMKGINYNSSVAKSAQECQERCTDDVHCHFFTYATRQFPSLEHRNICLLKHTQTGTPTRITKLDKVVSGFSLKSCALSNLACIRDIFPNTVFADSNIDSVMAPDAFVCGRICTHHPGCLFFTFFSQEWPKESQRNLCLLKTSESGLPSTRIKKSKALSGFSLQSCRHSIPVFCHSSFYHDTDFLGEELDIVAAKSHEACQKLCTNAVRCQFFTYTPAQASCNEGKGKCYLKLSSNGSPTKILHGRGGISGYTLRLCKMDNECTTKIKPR

| IC50 (Human Factor XIIa) | IC50 (Human FXIa) | SMILES |
| --- | --- | --- |
| 3 to 10 µM | > 40 µM | CN1CCC(CNc2ncc(Cl)cc2C(=O)NCc2c(Cl)cccc2-n2cnnn2)CC1 [Example 33.01, 5-Chloro-N-{[2-chloro-6-(1,2,3,4-tetrazol-1-yl)phenyl]methyl}-2-{[(1-methylpiperidin-4-yl)methyl]amino}pyridine-3-carboxamide] |
| 10 to 40 µM | 20 µM | CN1CCC(CNc2nccnc2C(=O)Nc2ccc3c(c2)C(=O)NC3)CC1 [Example 33.02] |
| 10 to 40 µM | 20 µM | CN1CCC(CNc2nccnc2C(=O)Nc2ccc3nc[nH]c(=O)c3c2)CC1 [Example 33.03] |
| 10 to 40 µM | > 40 µM | CN1CCC(CNc2nccnc2C(=O)Nc2ccc3ccnc(N)c3c2)CC1 [Example 33.04] |
| 3 to 10 µM | 33.5 µM | CCOC(=O)c1cn(-c2ccc(OC)c(F)c2CNC(=O)c2nccnc2NCC2CCN(C)CC2)nn1 [Example 33.05] |
| 10 to 40 µM | 20 µM | CN1CCC(CNc2nccnc2C(=O)NCCc2cnc[nH]2)CC1 [Example 33.06] |
| 10 to 40 µM | > 40 µM | CN1CCC(CNc2nccnc2C(=O)Nc2ccc3c(N)nccc3c2)CC1 [Example 33.07] |
| 10 to 40 µM | > 40 µM | CN1CCC(CNc2nccnc2C(=O)Nc2ccc3nccnc3c2)CC1 [Example 33.08] |
| 10 to 40 µM | 33.5 µM | COc1ccc(-n2cc(C(=O)O)nn2)c(CNC(=O)c2nccnc2NCC2CCN(C)CC2)c1F [Example 33.09, 1-(3-Fluoro-4-methoxy-2-{[(3-{[(1-methylpiperidin-4-yl)methyl]amino}pyrazin-2-yl)formamido]methyl}phenyl)-1,2,3-triazole-4-carboxylic acid] |
| 10 to 40 µM | 20 µM | Cc1nc2ccc(NC(=O)c3nccnc3NCC3CCN(C)CC3)cc2o1 [Example 33.10] |
| 10 to 40 µM | > 40 µM | CN1CCC(CNc2nccnc2C(=O)Nc2ccc(-c3n[nH]c(=O)[nH]3)cc2)CC1 [Example 33.11] |
| 1 to 3 µM | > 40 µM | CN1CCC(CNc2nccnc2C(=O)Nc2cccc3c(N)nccc23)CC1 [Example 33.12, N-(1-aminoisoquinolin-5-yl)-3-(((1-methylpiperidin-4-yl)methyl)amino)pyrazine-2-carboxamide] |
| 3 to 10 µM | 39.8 µM | CN1CCC(CNc2nccnc2C(=O)N[C@@H]2CCc3c2ccnc3N)CC1 [Example 33.13] |
| 10 to 40 µM | > 40 µM | CN1CCC(CNc2nccnc2C(=O)Nc2cnc3[nH]cc(Cl)c3c2)CC1 [Example 33.14] |
| 10 to 40 µM | > 40 µM | CN1CCC(CNc2nccnc2C(=O)Nc2cccc3[nH]cc(Cl)c23)CC1 [Example 33.15] |
| 3 to 10 µM | > 40 µM | CN1CCC(CNc2nccnc2C(=O)NCc2ccc3ccnc(N)c3c2)CC1 [Example 33.16] |
| 10 to 40 µM | > 40 µM | COc1ccc(-n2cncn2)c(CNC(=O)c2nccnc2NCC2CCN(C)CC2)c1F [Example 33.17] |
| 0.3 to 1 µM | > 40 µM | Cc1c(CNC(=O)c2nccnc2NCC2CCN(C)CC2)ccc2c(N)nccc12 [Example 33.18, N-((1-amino-5-methylisoquinolin-6-yl)methyl)-3-(((1-methylpiperidin-4-yl)methyl)amino)pyrazine-2-carboxamide] |
| 10 to 40 µM | > 40 µM | CN1CCC(CNc2nccnc2C(=O)NCc2cc(F)c3c(N)nccc3c2)CC1 [Example 33.19] |
| 1 to 3 µM | 13.5 µM | COc1cc2c(N)nccc2cc1CNC(=O)c1nccnc1NCC1CCN(C)CC1 [Example 33.20] |
| 3 to 10 µM | > 40 µM | CN1CCC(CNc2nccnc2C(=O)NCc2cc3c(N)nccc3s2)CC1 [Example 33.21] |

More lines, now with the values behind:

| SMILES | IC50 (Human Factor XIIa) | IC50 (Human FXIa) |
| --- | --- | --- |
| CN1CCC(CNc2ncc(-c3cnn(C)c3)nc2C(=O)NCc2ccc3c(N)nccc3c2)CC1 [Example 4.20] | 0.3 to 1 µM | 12.7 µM |
| Cc1cc(C(=O)NCc2ccc3c(N)nccc3c2)c(NCC2CCN(C)CC2)nc1C [Example 4.21] | 0.3 to 1 µM | > 40 µM |
| Nc1nccc2cc(CNC(=O)c3nccnc3Nc3ccc(N4CCNCC4)cc3)ccc12 [Example 4.22] | 10 to 40 µM | > 40 µM |
| CN1CCc2c(cccc2Nc2nccnc2C(=O)NCc2ccc3c(N)nccc3c2)C1 [Example 4.23] | 0.3 to 1 µM | > 40 µM |
| CN1CCc2cc(Nc3nccnc3C(=O)NCc3ccc4c(N)nccc4c3)ccc2C1 [Example 4.24] | 0.3 to 1 µM | > 40 µM |
| Nc1nccc2cc(CNC(=O)c3nccnc3NCC3CCN(CCO)CC3)ccc12 [Example 4.25] | 0.3 to 1 µM | > 40 µM |
| Nc1nccc2cc(CNC(=O)c3cnc(N4CCN(c5ccncc5)CC4)c(Cl)c3)ccc12 [Example 8.08] | 10 to 40 µM | > 40 µM |
| CN(CC1CCN(c2ccncc2)CC1)c1ncc(C(=O)NCc2ccc3c(N)nccc3c2)cc1Cl [Example 8.09, N-[(1-amino-6-isoquinolyl)methyl]-5-chloro-6-[methyl-[[1-(4-pyridyl)-4-piperidyl]methyl]amino]pyridine-3-carboxamide] | 1 to 3 µM | > 40 µM |
| N#Cc1cccc(CNc2ncc(C(=O)NCc3ccc4c(N)nccc4c3)cc2Cl)c1 [Example 11.28] | 10 to 40 µM | > 40 µM |
| COCCNc1ncc(C(=O)NCc2ccc3c(N)nccc3c2)cc1Cl [Example 11.29] | 10 to 40 µM | > 40 µM |
| CN(C)CCNc1ncc(C(=O)NCc2ccc3c(N)nccc3c2)cc1Cl [Example 11.30] | 10 to 40 µM | > 40 µM |
| Nc1nccc2cc(CNC(=O)c3cnc(NCCn4cncn4)c(Cl)c3)ccc12 [Example 11.31] | 10 to 40 µM | > 40 µM |
| CN1C(C)(C)CC(Nc2ncc(C(=O)NCc3ccc4c(N)nccc4c3)cc2Cl)CC1(C)C [Example 11.32] | 10 to 40 µM | > 40 µM |
| CN1CCC(Nc2ncc(C(=O)NCc3ccc4c(N)nccc4c3)cc2Cl)CC1 [Example 11.33] | 10 to 40 µM | > 40 µM |
| Nc1nccc2cc(CNC(=O)c3cnc(NC4CCNCC4)c(Cl)c3)ccc12 [Example 11.34] | 10 to 40 µM | > 40 µM |
| CN1CCC(Nc2ncc(C(=O)NCc3ccc4c(N)nccc4c3)cc2Cl)CC1=O (stereo not shown) [Example 11.35] | 10 to 40 µM | > 40 µM |
| CC(C)N1CCC(Nc2ncc(C(=O)NCc3ccc4c(N)nccc4c3)cc2Cl)CC1 [Example 11.36] | 3 to 10 µM | > 40 µM |
| CC(C)CN1CCC(Nc2ncc(C(=O)NCc3ccc4c(N)nccc4c3)cc2Cl)CC1 [Example 11.37] | 10 to 40 µM | > 40 µM |
| CS(=O)(=O)N1CCC(Nc2ncc(C(=O)NCc3ccc4c(N)nccc4c3)cc2Cl)CC1 [Example 11.38] | 10 to 40 µM | > 40 µM |
| CC(=O)N1CCC(Nc2ncc(C(=O)NCc3ccc4c(N)nccc4c3)cc2Cl)CC1 [Example 11.39] | 10 to 40 µM | > 40 µM |
| Nc1nccc2cc(CNC(=O)c3cnc(NC4CCN(c5nccs5)CC4)c(Cl)c3)ccc12 [Example 11.40] | 10 to 40 µM | > 40 µM |
| COCCN1CCC(Nc2ncc(C(=O)NCc3ccc4c(N)nccc4c3)cc2Cl)CC1 [Example 11.41] | 10 to 40 µM | > 40 µM |
| Nc1nccc2cc(CNC(=O)c3cnc(NC4CCN(C5CC5)CC4)c(Cl)c3)ccc12 [Example 11.42] | 10 to 40 µM | > 40 µM |
| Nc1nccc2cc(CNC(=O)c3cnc(OCCN4CCCCC4)c(Cl)c3)ccc12 [Example 13.26, N-((1-aminoisoquinolin-6-yl)methyl)-5-chloro-6-(2-(piperidin-1-yl)ethoxy)nicotinamide] | 3 to 10 µM | > 40 µM |
| Nc1nccc2cc(CNC(=O)c3cnc(OCCCN4CCCCC4)c(Cl)c3)ccc12 [Example 13.27] | 3 to 10 µM | > 40 µM |
| Nc1nccc2cc(CNC(=O)c3cc(Cl)cnc3N3CCN(c4ncccn4)CC3)ccc12 [Example 16.04] | 10 to 40 µM | > 40 µM |
| CC(=O)NCCN1CCN(c2ncc(Cl)cc2C(=O)NCc2ccc3c(N)nccc3c2)CC1 [Example 16.05] | 3 to 10 µM | > 40 µM |
| Nc1nccc2cc(CNC(=O)c3ccc(CN4CCN(c5ccncc5)CC4)c(Cl)c3)ccc12 [Example 29.07, N-((1-aminoisoquinolin-6-yl)methyl)-3-chloro-4-((4-(pyridin-4-yl)piperazin-1-yl)methyl)benzamide] | 10 to 40 µM | 21 µM |
| Nc1nccc2cc(CNC(=O)c3cnc(CN4CCN(c5ccncc5)CC4)c(Cl)c3)ccc12 [Example 29.08, N-[(1-amino-6-isoquinolyl)methyl]-5-chloro-6-[[4-(4-pyridyl)piperazin-1-yl]methyl]pyridine-3-carboxamide] | 10 to 40 µM | > 40 µM |
